Measurements published in paper PMC12373508, “D-cysteine impairs tumour growth by inhibiting cysteine desulfurase NFS1” (Nature Metabolism, 2025).
pKd: −log10 of the molar value.

Tests used:
[1] = target: T1, NFS1 (Homo sapiens, UniProt Q9Y697); assay: reconstituted [2Fe-2S] cluster synthesis by circular dichroism; UV/Vis of Cys-ketimine formation; assay type: biochemical
Target sequence in this assay (Q9Y697 56-457, other chains not shown): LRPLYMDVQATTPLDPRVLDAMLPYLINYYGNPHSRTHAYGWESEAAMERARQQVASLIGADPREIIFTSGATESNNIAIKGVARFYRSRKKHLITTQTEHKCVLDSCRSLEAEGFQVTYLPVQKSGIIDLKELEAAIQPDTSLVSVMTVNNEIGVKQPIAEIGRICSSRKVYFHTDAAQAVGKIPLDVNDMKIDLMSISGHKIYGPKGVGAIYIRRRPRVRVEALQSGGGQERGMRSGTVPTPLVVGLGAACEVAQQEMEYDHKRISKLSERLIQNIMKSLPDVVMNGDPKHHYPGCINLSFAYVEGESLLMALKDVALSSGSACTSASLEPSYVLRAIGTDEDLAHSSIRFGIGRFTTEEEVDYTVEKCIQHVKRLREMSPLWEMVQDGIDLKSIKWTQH
Target sequence in this assay (Q9HD34 whole entry partner, other chains not shown): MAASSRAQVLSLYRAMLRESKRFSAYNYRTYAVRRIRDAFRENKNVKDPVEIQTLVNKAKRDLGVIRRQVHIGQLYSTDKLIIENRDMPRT
Target sequence in this assay (Q16595 81-210 partner, other chains not shown): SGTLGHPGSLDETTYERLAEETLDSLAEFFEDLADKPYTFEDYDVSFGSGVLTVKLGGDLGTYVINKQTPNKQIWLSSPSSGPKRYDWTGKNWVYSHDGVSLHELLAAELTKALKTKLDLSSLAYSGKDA
Target sequence in this assay (Q9H1K1 35-167 partner, other chains not shown): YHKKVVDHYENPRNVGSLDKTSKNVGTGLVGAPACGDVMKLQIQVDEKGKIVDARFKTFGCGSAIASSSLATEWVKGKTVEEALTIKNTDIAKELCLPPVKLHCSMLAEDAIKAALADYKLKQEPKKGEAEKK

[2] = target: NFS1 (Homo sapiens, UniProt Q9Y697, C381S); assay: microscale thermophoresis; assay type: binding
[3] = target: T1, NFS1; assay: X-ray crystal structure after incubation with […] ligand; assay type: binding
Target sequence in this assay (Q9Y697 56-457): as the sequence (Q9Y697 56-457, other chains not shown) above
Target sequence in this assay (Q9HD34 whole entry partner): as the sequence (Q9HD34 whole entry partner, other chains not shown) above
Target sequence in this assay (P0A6A8 2-78 partner): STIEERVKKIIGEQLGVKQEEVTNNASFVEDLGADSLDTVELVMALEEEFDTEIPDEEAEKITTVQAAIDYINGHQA
Target sequence in this assay (Q9H1K1 35-167 partner): as the sequence (Q9H1K1 35-167 partner, other chains not shown) above

Chain of NFS1 (Homo sapiens, UniProt Q9Y697, C381S) (Q9HD34 whole entry, other chains not shown): as the sequence (Q9HD34 whole entry partner, other chains not shown) above
Chain of NFS1 (Homo sapiens, UniProt Q9Y697, C381S) (Q9Y697 56-457 C381S, other chains not shown): as the sequence (Q9Y697 56-457, other chains not shown) above, with C326S counted along it

Row | Structure (SMILES) | reconstituted [2Fe-2S] cluster synthesis by circular dichroism; UV/Vis of Cys-ke [1] | pKd [2] | X-ray crystal structure after incubation with 1 mM ligand [3]
1 | N[C@H](CS)C(=O)O [D-Cys, D-cysteine] | when D-Cys is present in excess, the NFS1 enzymatic activity is inhibited | 4.59 | 
2 | N[C@@H](CS)C(=O)O [L-Cys, L-cysteine] |  | 5.67 | 
3 | C#CC[C@H](N)C(=O)O [PG, L-propargylglycine] |  |  | in the NFS1 active site, we observed an external L-propargylglycine-ketimine
